Reference: patent US20150290235A1, “USE OF SMALL MOLECULE INHIBITORS/ACTIVATORS IN COMBINATION WITH (DEOXY)NUCLEOSIDE OR (DEOXY)NUCLEOTIDE ANALOGS FOR TREATMENT OF CANCER AND HEMATOLOGICAL MALIGNANCIES OR VIRAL INFECTIONS” (AB SCIENCE, priority 2012, published 2015)
Several values for one entry are separate records, joined by “and”; a condition that tells them apart may be missing. Equal values may be shown once. Entries after “also recorded” stand apart in the source; their conditions may differ.

Key:
[1] = test system: BxPC-3 pancreatic cancer cells; assay: WST-1 proliferation assay, BxPC-3; assay type: cell-based, human
Procedure: (§1) Cancer cell lines: Pancreatic cancer cells lines (Mia Paca-2, Panc-1, BxPC-3 and Capan-2) were obtained from Dr. Juan Iovanna (Inserm, France). Cells were maintained in RPMI (BxPC-3, Capan-2) or DMEM (Mia Paca-2, Panc-1) medium containing glutamax-1 (Lonza), supplemented with 100 U/ml penicillin/100 μg/ml streptomycin, and 10% fetal calf serum (FCS) (AbCys, Lot S02823S1800). Expression of tyrosine kinases was determined by RT-PCR using Hot Star Taq (Qiagen GmbH, Hilden, Germany) in a 2720 Thermal Cycler (Applied Biosystems).
(§2) Treatment was started with the addition of the respective drug. […] After 72 hours WST-1 reagent was added and incubated with the cells for 4 hours before absorbance measurement at 450 nm in an EL800 Universal Microplate Reader (Bio-Tek Instruments Inc.). Media alone was used as a blank and proliferation in the absence of compounds served as positive control. Results are representative of three/four experiments.

[2] = test system: Capan-2 pancreatic cancer cells; assay: WST-1 proliferation assay, Capan-2; assay type: cell-based, human
Procedure: as §1, §2

[3] = test system: Mia Paca-2 pancreatic cancer cells; assay: WST-1 proliferation assay, Mia Paca-2; assay type: cell-based, human; details: for response to gemcitabine after pre-incubation with TKI: Mia Paca-2, gemcitabine-resistant, 10 μM TKI
[4] = test system: Panc-1 pancreatic cancer cells; assay: WST-1 proliferation assay, Panc-1; assay type: cell-based, human; details: Panc-1
Procedure: as §1, §2

[5] = test system: Abrams osteosarcoma cells; assay: Alamar Blue cell proliferation assay, Abrams; assay type: cell-based, canine
D17 osteosarcoma cells = assay: Alamar Blue cell proliferation assay, D17; assay type: cell-based, canine
[6] = test system: CMT12 breast carcinoma cells; assay: Alamar Blue cell proliferation assay, CMT12; assay type: cell-based, canine
[7] = test system: CMT27 breast carcinoma cells; assay: Alamar Blue cell proliferation assay, CMT27; assay type: cell-based, canine
C2 mastocytoma cells = assay: Alamar Blue cell proliferation assay, C2; assay type: cell-based, canine
[8] = test system: Mia Paca-2 pancreatic tumors; assay: Nog-SCID mouse model of human pancreatic cancer; assay type: in vivo, Nog-SCID mice; details: day 56, 28 days of treatment; control 1023
[9] = test system: canine cancer cell lines other than C2; assay: cells; details: Canis lupus familiaris, read-out: IC50 masitinib single agent
[10] = test system: Ba/F3 cells expressing human or mouse wild-type c-Kit; details: read-out: IC50, blocking stem cell factor-induced proliferation and c-Kit tyrosine phosphorylation; cited from earlier work
[11] = test system: Ba/F3 cells expressing PDGFR-α; details: read-out: IC50, PDGF-BB-stimulated proliferation and PDGFR-α tyrosine phosphorylation; cited from earlier work
[12] = target: human deoxycytidine kinase (dCK) (Homo sapiens, UniProt P27707); assay: dCK activity with UTP as phosphate donor (PK/LDH enzymatic-coupled assay); details: nine dCK substrates
Chain of human deoxycytidine kinase (dCK) (P27707 whole entry): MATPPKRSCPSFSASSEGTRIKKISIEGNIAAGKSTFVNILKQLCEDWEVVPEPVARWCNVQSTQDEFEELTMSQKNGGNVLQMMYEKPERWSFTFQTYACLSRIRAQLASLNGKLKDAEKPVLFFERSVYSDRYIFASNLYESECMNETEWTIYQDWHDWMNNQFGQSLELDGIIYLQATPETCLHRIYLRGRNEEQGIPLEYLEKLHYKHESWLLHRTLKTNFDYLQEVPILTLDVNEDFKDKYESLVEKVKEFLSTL

[13] = Canis lupus familiaris, 72 h, read-out: IC50 masitinib monotherapy
[14] = Canis lupus familiaris, Breast carcinoma cell, 72 h, read-out: IC50 masitinib monotherapy

For Cc1ccc(NC(=O)c2ccc(CN3CCN(C)CC3)cc2)cc1Nc1nc(-c2cccnc2)cs1 [Masitinib, 4-(4-methylpiperazin-1-ylmethyl)-N-[4-methyl-3-(4-pyridin-3ylthiazol-2-ylamino)phenyl]benzamide], the “synergy of masitinib with gemcitabine” value ([1]; BxPC-3, gemcitabine-sensitive) was “no synergy”, the IC50 ([1]; Homo sapiens, BxPC-3, 72 hours, 1% FCS, read-out: IC50, single agent) was 5 to 10 µM and the “synergy of masitinib with gemcitabine” value ([2]; Capan-2, gemcitabine-sensitive) was “no synergy”. For the same compound, the IC50 ([2]; Homo sapiens, Capan-2, 72 hours, 1% FCS, read-out: IC50, single agent) was 5 to 10 µM, the IC50 ([3]; Homo sapiens, Mia Paca-2, 72 hours, 1% FCS, read-out: IC50, single agent) was 5 to 10 µM and the “response to gemcitabine after pre-incubation with TKI” value (from here on “response to gemcitabine”) [3] was “able to restore sensitivity to gemcitabine”. The “reduction in gemcitabine IC50” value ([3]; Mia Paca-2, pre-treated with 5 and 10 μM masitinib (10 μM)) was > 400 fold and 400 fold, the IC50 ([4]; Homo sapiens, 72 hours, 1% FCS, read-out: IC50, single agent) was 5 to 10 µM and the “reduction in gemcitabine IC50” value ([4]; masitinib pre-treatment (10 μM)) was 10 fold. For the same compound, the “Sensitization factor (maximum)” value ([5]; Abrams, gemcitabine with masitinib 5 μM) was 18, the IC50 [5, 13] was over 10 µM and the IC50 (D17 osteosarcoma cells; [13]) was over 10 µM. For the same compound, the “Sensitization factor (maximum)” value (D17 osteosarcoma cells; D17, gemcitabine with masitinib 5 μM) was 70, the “Sensitization factor (maximum)” value ([6]; CMT12, gemcitabine with masitinib 10 μM) was over 10 and the IC50 [6, 14] was 8 µM. For the same compound, the “Sensitization factor (maximum)” value ([7]; CMT27, gemcitabine with masitinib 10 μM) was over 75, the IC50 [7, 14] was 8 µM and the “Sensitization factor (maximum)” value (C2 mastocytoma cells; C2, gemcitabine with masitinib 0.001 μM) was 1. The IC50 (C2 mastocytoma cells; [13]) was 0.03 µM, the “Tumor Volume, Median” value [8] was 865 mm^3 and the IC50 [9] was 5 to 20 µM. The IC50 [10] was 0.15 ± 0.08 µM and the IC50 [11] was 0.3 ± 0.005 µM.

With COc1cc(Nc2c(C#N)cnc3cc(OCCCN4CCN(C)CC4)c(OC)cc23)c(Cl)cc1Cl [bosutinib, 4-[(2,4-dichloro-5-methoxyphenyl)amino]-6-methoxy-7-[3-(4-methylpiperazin-1-yl)propoxy]quinoline-3-carbonitrile] the “activation of dCK (substrate phosphorylation)” value (“activation of dCK” below) [12] was “most active compounds; also recorded: activate dCK”.

In the case of CO[C@@H](C(=O)N1Cc2n[nH]c(NC(=O)c3ccc(N4CCN(C)CC4)cc3)c2C1)c1ccccc1 [danusertib], the “activation of dCK” value [12] is reported as “most active compounds; also recorded: activate dCK”.

With Cc1nc(Nc2ncc(C(=O)Nc3c(C)cccc3Cl)s2)cc(N2CCN(CCO)CC2)n1.O [dasatinib, N-(2-chloro-6-methylphenyl)-2-[[6-[4-(2-hydroxyethyl)-1-piperazinyl]-2-methyl-4-pyrimidinyl]amino]-5-thiazole carboxamide monohydrate] the “response to gemcitabine” value [3] was “did not result in an increased response” and the “cell proliferation with TKI alone” value ([3]; Mia Paca-2, imatinib 10 μM, dasatinib >0.1 μM) was “partially inhibited”.

With C#Cc1cccc(Nc2ncnc3cc(OCCOC)c(OCCOC)cc23)c1 [erlotinib, N-(3-ethynylphenyl)-6,7-bis(2-methoxyethoxy) quinazolin-4-amine] the “activation of dCK” value [12] was “relatively little or no activity”.

With COc1cc(Nc2ncc(F)c(Nc3ccc4c(n3)N(COP(=O)(O)O)C(=O)C(C)(C)O4)n2)cc(OC)c1OC [fostamatinib, [6-({5-fluoro-2-[(3,4,5-trimethoxyphenyl)amino]pyrimidin-4-yl}amino)-2,2-dimethyl-3-oxo-2,3-dihydro-4H-pyrido[3,2-b][1,4]oxazin-4-yl]methyl dihydrogen phosphate] the “activation of dCK” value [12] was “relatively little or no activity; also recorded: did not activate dCK”.

In the case of Cc1ccc(NC(=O)c2ccc(CN3CCN(C)CC3)cc2)cc1Nc1nccc(-c2cccnc2)n1 [imatinib, 4-[(4-methylpiperazin-1-yl)methyl]-N-[4-methyl-3-[(4-pyridin-3-ylpyrimidin-2-yl)amino]phenyl]benzamide], the “response to gemcitabine” value [3] is reported as “did not result in an increased response”.

In the case of Cc1cn(-c2cc(NC(=O)c3ccc(C)c(Nc4nccc(-c5cccnc5)n4)c3)cc(C(F)(F)F)c2)cn1 [nilotinib, 4-methyl-N-[3-(4-methyl-1H-imidazol-1-yl)-5-(trifluoromethyl)phenyl]-3-[(4-pyridin-3-ylpyrimidin-2-yl)amino]benzamide], the “activation of dCK” value [12] is reported as “relatively little or no activity; also recorded: did not activate dCK”.

In the case of CNC(=O)c1cc(Oc2ccc(NC(=O)Nc3ccc(Cl)c(C(F)(F)F)c3)cc2)ccn1 [sorafenib, 4-[4-[[4-chloro-3-(trifluoromethyl)phenyl]carbamoylamino]phenoxy]-N-methyl-pyridine-2-carboxamide], the “activation of dCK” value [12] is reported as “relatively little or no activity; also recorded: did not activate dCK”.

For CCN(CC)CCNC(=O)c1c(C)[nH]c(/C=C2\C(=O)Nc3ccc(F)cc32)c1C [sunitinib, N-(2-diethylaminoethyl)-5-[(Z)-(5-fluoro-2-oxo-1H-indol-3-ylidene)methyl]-2,4-dimethyl-1H-pyrrole-3-carboxamide], the “activation of dCK” value [12] was “relatively little or no activity; also recorded: did not activate dCK”.

In the case of Cc1[nH]c(/C=C2\C(=O)Nc3ccc(F)cc32)c(C)c1C(=O)NCCN1CCCC1 [toceranib, (Z)-5-[(5-Fluoro-2-oxo-1,2-dihydro-3H-indol-3-ylidene)methyl]-2,4-dimethyl-N-(2-pyrrolidin-1-ylethyl)-1H-pyrrole-3-carboxamide], the “activation of dCK” value [12] is reported as “relatively little or no activity; also recorded: did not activate dCK”.

In the case of Cc1cc(Nc2cc(N3CCN(C)CC3)nc(Sc3ccc(NC(=O)C4CC4)cc3)n2)[nH]n1 [tozacertib], the “activation of dCK” value [12] is reported as “most active compounds; also recorded: activate dCK”.
